Earlier results in patent publication US20090196935A1, “Pharmaceutical Capsules Comprising Extended Release Dipyridamole Pellets” (priority 2008, published 2009).

What was measured:
[1] = in vivo
[2] = not given; remark: listed apart in the source

biological half-life [1]: less than one hour
solubility in acidic mediums (acidic mediums with a pH below 4): soluble
solubility in dilute acids (dilute acids): soluble
solubility in water (water): practically insoluble
solubility in water at a pH greater than 4 (water at a pH greater than 4): practically insoluble
solubility (weak base, medium not stated): poor solubility
pKa [2]: 6.1
Compound: OCCN(CCO)c1nc(N2CCCCC2)c2nc(N(CCO)CCO)nc(N3CCCCC3)c2n1 [Dipyridamole, 2,6-bis-(diethanolamino)-4,8-dipiperidino-(5,4-d)-pyrimidine]
